Patent publication US8513270B2, “Substituted heterocycles as Janus kinase inhibitors” (Incyte Corporation, priority 2006, dated 2013)
pIC50: −log10 of the molar value. Like-named read-outs stand apart in the source and are kept apart here.

How the values were obtained:
[1] = molecular target: T1, human JAK2 (a.a. 828-1132) (Homo sapiens, UniProt O60674); assay: In vitro JAK kinase assay (HTRF), JAK2; assay type: biochemical; details: JAK2, 30 μM ATP; read-out: EXAMPLE A HTS-JAK2 HTRF-2 IC50
T1 construct: JAK2 (a.a. 828-1132); His tag (N); made in house; host or cells: insect cells (baculovirus)
T1 sequence (O60674 828-1132): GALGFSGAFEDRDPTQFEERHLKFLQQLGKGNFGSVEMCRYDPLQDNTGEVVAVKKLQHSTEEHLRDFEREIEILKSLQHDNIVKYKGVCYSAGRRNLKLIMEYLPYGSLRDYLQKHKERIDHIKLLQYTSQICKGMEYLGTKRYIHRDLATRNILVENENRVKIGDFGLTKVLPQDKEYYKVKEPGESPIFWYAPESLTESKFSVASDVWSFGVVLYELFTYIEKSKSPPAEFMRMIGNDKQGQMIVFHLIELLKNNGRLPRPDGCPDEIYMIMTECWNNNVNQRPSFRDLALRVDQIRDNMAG
Procedure, shortened: (§1)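 His-tagged catalytic domains from baculovirus-infected insect cells phosphorylated 500 nM biotinylated peptide in 50 mM Tris pH 7.8, 100 mM NaCl, 5 mM DTT, 0.01% BSA for 1 h at room temperature. ATP was 90 μM (JAK1), 30 μM (JAK2), 3 μM (JAK3). Detection used Eu-Py20/SA-APC; IC50s were derived.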

TF1-BCRABL1 cells = TF1-BCRABL1 cells (Homo sapiens, UniProt P00519); assay: ABL1 cell based assay: viability of ABL1-dependent cell line (CellTiter-Glo)
Procedure, shortened: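 ABL1-dependent cells plated at 3000 per well in RPMI 1640 with 10% FBS and exposed to compounds for 72 h at 37° C, 5% CO2, 0.2% DMSO final. Viability read by CellTiter-Glo luminescence; duplicate or more.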

[2] = molecular target: T2, human JAK1 (a.a. 837-1142) (Homo sapiens, UniProt P23458); assay: In vitro JAK kinase assay (HTRF), JAK1; assay type: biochemical; details: JAK1, 90 μM ATP; read-out: EXAMPLE A JAK2-JAK1 HTRF-2 IC50
T2 construct: human JAK1 (a.a. 837-1142); His tag (N); made in house; host or cells: insect cells (baculovirus)
T2 sequence (P23458 849-1154): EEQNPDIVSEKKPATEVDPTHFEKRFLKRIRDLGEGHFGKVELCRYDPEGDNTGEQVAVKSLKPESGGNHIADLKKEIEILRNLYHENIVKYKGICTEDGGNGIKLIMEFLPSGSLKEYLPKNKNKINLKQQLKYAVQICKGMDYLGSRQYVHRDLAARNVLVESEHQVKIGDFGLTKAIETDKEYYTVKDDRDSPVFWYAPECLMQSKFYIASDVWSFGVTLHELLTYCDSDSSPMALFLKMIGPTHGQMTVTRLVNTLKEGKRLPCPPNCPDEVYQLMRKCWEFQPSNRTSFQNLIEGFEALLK
Procedure, shortened: as §1

[3] = molecular target: T3, human JAK3 (a.a. 781-1124) (Homo sapiens, UniProt P52333); assay: In vitro JAK kinase assay (HTRF), JAK3; assay type: biochemical; details: JAK3, 3 μM ATP; read-out: EXAMPLE A JAK2-JAK3 HTRF-2 IC50
T3 construct: JAK3 (a.a. 781-1124); His tag (N); made in house; host or cells: insect cells (baculovirus)
T3 sequence (P52333 781-1124): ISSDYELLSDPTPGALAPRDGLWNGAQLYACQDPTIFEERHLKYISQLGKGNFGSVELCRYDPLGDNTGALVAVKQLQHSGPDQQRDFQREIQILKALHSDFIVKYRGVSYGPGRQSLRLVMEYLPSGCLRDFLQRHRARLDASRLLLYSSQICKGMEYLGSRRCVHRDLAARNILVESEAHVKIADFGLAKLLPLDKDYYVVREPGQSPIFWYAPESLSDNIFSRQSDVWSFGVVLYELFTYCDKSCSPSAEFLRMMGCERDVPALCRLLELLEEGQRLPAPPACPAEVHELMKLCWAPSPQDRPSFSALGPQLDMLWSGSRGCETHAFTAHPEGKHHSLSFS
Procedure, shortened: as §1

T315I ABL1 = molecular target: T4, T315I ABL1 (Homo sapiens, UniProt P00519, T315I); assay: T315I ABL1 HTRF assay; assay type: biochemical; details: 10 μM ATP; read-out: EXAMPLE G T315I Abl IC50
T4 construct: The catalytic domains of ABL1 kinases (residues 27 to the C-termini) were N-terminal His tagged; His tag (N); purchased Upstate Cell Signaling Solutions; host or cells: insect cells (baculovirus)
Method: (§2) Compounds herein described were tested for inhibitory activity of ABL1 kinase (wild-type and T315I mutant) as described below. The catalytic domains of ABL1 kinases (residues 27 to the C-termini) were N-terminal His tagged and expressed by baculovirus in insect cells and purified. These were purchased in purified form from Upstate Cell Signaling Solutions. ABL1 and T315I ABL1 catalyze the phosphorylation of p28. The phosphorylated p28 is detected by Homogeneous Time Resolved Fluorescence (HTRF). IC50s of compounds were measured for each kinase in the reactions that contain: 1-2 nM ABL1 or T315I ABL1, 500 nM peptide, 35 μM ATP for ABL1 and 10 μM ATP for T315I ABL1, 2.0% DMSO in assay buffer containing 50 mM Tris, pH 7.8, 100 mM NaCl, 10 mM MgCl2, 5 mM DTT, 0.6 mg/mL BSA. Reactions proceed at room temperature for one and half hour and were stopped by adding, 20 μL additional 50 mM NaCl, 0.4 mg/mL BSA, 45 mM EDTA, 200 nM SA-APC, 4 nM Eu—Py20 in assay buffer. The plates were incubated at room temperature for 40 min and HTRF was then measured on a plate reader.

ABL1 kinase (wild-type) = molecular target: T5, ABL1 kinase (wild-type) (Homo sapiens, UniProt P00519); assay: ABL1 HTRF assay (wild-type); assay type: biochemical; details: 35 μM ATP; read-out: EXAMPLE G WT Abl IC50
T5 construct: The catalytic domains of ABL1 kinases (residues 27 to the C-termini) were N-terminal His tagged; His tag (N); purchased Upstate Cell Signaling Solutions; host or cells: insect cells (baculovirus)
Method: as §2

[4] = system: JAK2_INA61 (cancer cell line dependent on cytokines and JAK/STAT signal transduction); assay: Cellular assay: viability of cytokine-dependent cancer cell line (CellTiter-Glo); assay type: cell-based; details: 72 hours, read-out: EXAMPLE B JAK2_INA61 IC50
Method: One or more compounds herein were tested for inhibitory activity of JAK targets according to at least one of the following cellular assays.
Compounds were added to the cells in DMSO/media (final concentration 0.2% DMSO) and incubated for 72 hours at 37° C., 5% CO2. The effect of compound on cell viability was assessed using the CellTiter-Glo Luminescent Cell Viability Assay (Promega) followed by TopCount (Perkin Elmer, Boston, Mass.) quantitation. Potential off-target effects of compounds were measured in parallel using a non-JAK driven cell line with the same assay readout. […] All experiments were performed in duplicate.

[5] = 72 hours, cell viability, read-out: EXAMPLE F JAK2-TF1-BCRABL1 IC50
[6] = TF1_BCRABL cells, read-out: EXAMPLE H TF1_BCRABL IC50

SMILES | pIC50 [1] | pIC50 [2] | pIC50 [3] | pIC50 (T315I ABL1) | pIC50 (ABL1 kinase (wild-type)) | pIC50 [4] | GI50 (TF1-BCRABL1 cells; [5]) | GI50 (TF1-BCRABL1 cells; [6])
Cc1ccc(C(=O)Nc2cccc(C(F)(F)F)c2)cc1-c1ccc2c(c1)[nH]c1ncncc12 [Example 52, 4-methyl-3-(9H-pyrimido-[4,5-b]indol-7-yl)-N-[3-(trifluoromethyl)phenyl]benzamide] | ≥ 6.30 | ≥ 6.30 | ≥ 6.30 | > 6.72 | > 6.70 | 6.00 to 6.30 | ≤ 500 nM | < 180 nM
Cc1ccc(C(=O)Nc2cncc(C(F)(F)F)c2)cc1-c1ccc2c(c1)[nH]c1ncncc12 [Example 66, 4-Methyl-3-(9H-pyrimido[4,5-b]indol-7-yl)-N-[5-(trifluoromethyl)pyridin-3-yl]-benzamide] | ≥ 6.30 | ≥ 6.30 | ≥ 6.30 | > 6.72 | > 6.70 | 6.00 to 6.30 | ≤ 500 nM | < 180 nM

Continued, in another order:

pIC50 [1] | pIC50 [2] | pIC50 [3] | pIC50 (T315I ABL1) | pIC50 (ABL1 kinase (wild-type)) | pIC50 [4] | SMILES | GI50 (TF1-BCRABL1 cells; [5]) | GI50 (TF1-BCRABL1 cells; [6])
≥ 6.30 | ≥ 6.30 | ≥ 6.30 | > 6.72 | > 6.70 | – | Cc1ccc(NC(=O)c2cc(N3CCN(C)CC3)cc(C(F)(F)F)c2)cc1-c1ccc2c(c1)[nH]c1ncncc12 [Example 26, 3-(4-Methylpiperazin-1-yl)-N-[4-methyl-3-(9H-pyrimido[4,5-b]indol-7-yl)phenyl]-5-(trifluoromethyl)benzamide bis(trifluoroacetate)] | ≤ 500 nM | < 180 nM
≥ 6.30 | ≥ 6.30 | 6.00 to 6.30 | > 6.72 | > 6.70 | ≥ 6.30 | Cc1ccc(NC(=O)c2cccc(C(F)(F)F)c2)cc1-c1ccc2[nH]c3ncncc3c2c1 [Example 40, N-[4-Methyl-3-(9H-pyrimido[4,5-b]indol-6-yl)phenyl]-3-(trifluoromethyl)benzamide] | ≤ 500 nM | < 180 nM
≥ 6.30 | ≥ 6.30 | ≥ 6.30 | > 6.72 | > 6.70 | 6.00 to 6.30 | O=C(Nc1cccc(C(F)(F)F)c1)c1ccc(Cl)c(-c2ccc3c(c2)[nH]c2ncncc23)c1 [Example 58, 4-chloro-3-(9H-pyrimido-[4,5-b]indol-7-yl)-N-[3-(trifluoromethyl)phenyl]-benzamide] | ≤ 500 nM | < 180 nM
